Test results: ChEMBL document CHEMBL3272158, “2-Azabicyclo (2.2.2)octane analogues of the prodine analgetics” (J Med Chem, 1976)
Calls of active or inactive are those of the source. No cut-off for these calls is given here.

Columns and labels:
[1] = test system: Rattus norvegicus; test: Analgetic activity in albino rat at 100 mg/kg, ip measured 15 mins interval by tail-flick method; type: functional, organism-based; design: dose 100 mg/kg
[2] = Toxicity in ip dosed albino rat; type: organism-based; conditions: in vivo
[3] = test system: Rattus norvegicus; test: Analgetic activity in ip dosed albino rat measured 15 mins interval by tail-flick method; type: functional; conditions: 0.25 h

In the case of `CCC(=O)O[C@@]1(c2ccccc2)C[C@H]2CC[C@H]1CN2C`, the Activity [1] is reported as “inactive”.
For `CCC(=O)OC1(c2ccccc2)CCN(C)CC1C` (racemic) [ALPHAPRODINE], the LD50 [2] was 22 mg/kg and the ED50 [3] was 1.4 mg/kg.
For `CCC(=O)O[C@@]1(c2ccccc2)C[C@H]2CC[C@H]1N(C)C2` (relative stereo), the LD50 [2] was 12.3 mg/kg, the Activity [1] was “inactive” and the ED50 [3] was 3.1 mg/kg.
In the case of `CCC(=O)O[C@@]1(c2ccccc2)C[C@H]2CC[C@H]1N(Cc1ccccc1)C2` (relative stereo), the Activity [1] is reported as “inactive”.
With `CCC(=O)O[C@]1(c2ccccc2)C[C@H]2CC[C@H]1N(C)C2` (relative stereo) the Activity [1] was “inactive”.
